This is an account of results in patent US20140066842A1, “MICRONEEDLE DEVICES AND METHODS” (3M INNOVATIVE PROPERTIES COMPANY, priority 2011, published 2014).

Data set [1] in a line: Discoloration of tissue in which local anesthetic/dose-extending component are administered. It counts as in vivo. Conditions: dose-extending component administered with local anesthetic by the microneedle devices.
The nature of data set [2]: In vivo delivery of lidocaine to swine skin tissue from coated microneedle array (biopsy, LC/MS/MS). Conditions: dose-extending component delivered with lidocaine and/or prilocaine by microneedles. The procedure: The in vivo delivery of lidocaine to tissue using the coated microneedle array described above was determined using naïve young adult female mixed breed agricultural swine (Yorkshire X from Midwest Research Swine, Gibbon, Minn.). Swine with minimal skin pigmentation and weighing 10-40 kg were selected for the study. The animals were initially sedated with ketamine (10 mg/kg) and glycopyrrolate (0.011 mg/kg) was intramuscularly administered to reduce salivary, tracheobronchial, and pharyngeal secretions. Hair and dirt on pig skin at the intended application sites were removed prior to application of the microneedle array to minimize complications Skin test sites were selected based on lack of skin pigmentation and skin damage. The hair was first clipped using an electric shaver followed by shaving with a wet multi-blade disposable razor (Schick Xtreme3) and shaving cream (Gillette Foamy Regular) while the animal was under anesthesia.
A light surgical plane of anesthesia was achieved by administering 1.5-5% isoflurane in 1.5-4 L of oxygen by mask. Anesthetized animals were placed in lateral recumbency on insulated table pads. During the experiment, the animals were placed on a heated table to control body temperature at approximately 38° C. Animals were observed continuously until normal recovery was attained. […] The biopsy punch samples were stored at −20° C. until analyzed. […]
Protein precipitation was used to prepare the digested tissue samples for analysis by LC/MS/MS. […] The resulting sample was quantitatively analyzed using a Sciex API3000 triple quadrupole mass spectrometer (Applied Biosystems, Foster City, Calif.) running in positive ion mode using Turbo IonSpray interface to monitor the product ions resulting from the m/z transitions: 235→86.2 for lidocaine and 247→97.5 for mepivacaine. The linear range for lidocaine was 50.0 to 20,000 ng/mL evaluated using 1/x^2 curve weighting. […]

Consider `CNC[C@H](O)c1ccc(O)c(O)c1` [epinephrine], for which, in data set [1], the “Discoloration of the tissue” value is listed as “cause discoloration of the tissue, resulting in a blue or bruised appearance”.

With `N=C(N)NC(=O)Cc1c(Cl)cccc1Cl` [guanfacine], the “Discoloration of the tissue” value in data set [1] is listed as “without any appreciable tissue discoloration”. For the same molecule, the “Extension of the local anesthetic dose (tissue levels compared with local anesthetic without the alpha adrenergic agonist)” value in data set [2] was “extend the local anesthetic dose”.

Take `Clc1cccc(Cl)c1N=C1NCCN1` [clonidine]: the “Discoloration of the tissue” value in data set [1] was “without any appreciable tissue discoloration”. The “Extension of the local anesthetic dose (tissue levels compared with local anesthetic without the alpha adrenergic agonist)” value in data set [2] is “extend the local anesthetic dose”.

For the molecule `Nc1cc(Cl)c(N=C2NCCN2)c(Cl)c1` [apraclonidine], the “Discoloration of the tissue” value in data set [1] is “without any appreciable tissue discoloration”. For the same molecule, in data set [2], the “Extension of the local anesthetic dose (tissue levels compared with local anesthetic without the alpha adrenergic agonist)” value was “extend the local anesthetic dose”.
